Patent publication US20080089845A1, “METHODS FOR DETERMINING EFFECTIVE DOSES OF FATTY ACID AMIDE HYDROLASE INHIBITORS IN VIVO” (N.V. Organon, priority 2006, published 2008)

Assays:
[1] = test system: OEA and PEA levels in plasma; assay: 28-day toxicokinetic (TK) study in rodents, plasma OEA and PEA levels; type: in vivo, rat; details: rodent TK study, 50, 275 and 1500 mg/kg
Description: We carried out toxicokinetic (TK) studies in rodents. […] AEA was included in this assay to examine whether basal or elevated levels of AEA could be detected.

OEA plasma levels = assay: Plasma/serum OEA and PEA levels by LC-MS/MS after oral administration in rats; type: in vivo; details: rat, 30 mg/kg p.o. vs 10 mg/kg p.o.
Experimental: At 0, 1, 2, 4, 8, 12, and 24 hours post-administration, animals were sacrificed to collect serum and brain tissue samples. For each time point, FAAH activity was determined in brain tissue homogenates by essentially the same method as that described in Fegley et al. (2005), J. Pharm. and Exp. Ther., 313:352-358. We observed complete FAAH inhibition at 10 mg/kg and partial FAAH inhibition at 1 mg/kg (FIG. 1).
Serum OEA and PEA levels were determined by LC-MS/MS. As shown in FIGS. 2 (A-B), plasma levels of both OEA and PEA were highly correlated with FAAH inhibition in the brain (R^2=0.9459 and 0.929, respectively). In addition, changes in OEA plasma levels correlated with changes in anandamide (AEA) levels in the brain (FIG. 3; R^2=0.9363), and changes in AEA brain levels correlated with brain FAAH inhibition (FIG. 4; R^2=0.9996). […] AUCs were determined as the sum of the area under the plasma concentration curve of the analyte measured (minus the endogenous level), or as a % FAAH inhibition versus time curve from time zero to the last time point collected by the trapezoidal rule.

plasma OEA levels = assay: Time course of plasma OEA levels after oral administration to cynomolgus monkeys; type: in vivo
Experimental: Afterwards, a time course of plasma OEA levels was determined for each subject by obtaining a plasma sample at 0.5, 1, 2, 4, 8, 12, and 24 hours post-administration.

FAAH = molecular target: T1, FAAH (Mus musculus, UniProt O08914); assay: Escalating oral dose study in mice, brain FAAH activity; type: in vivo
T1 construct: brain FAAH Activity was also evaluated in an escalating oral dose study in mice; from tissue; host or cells: mouse brain
T1 sequence (O08914 1-579): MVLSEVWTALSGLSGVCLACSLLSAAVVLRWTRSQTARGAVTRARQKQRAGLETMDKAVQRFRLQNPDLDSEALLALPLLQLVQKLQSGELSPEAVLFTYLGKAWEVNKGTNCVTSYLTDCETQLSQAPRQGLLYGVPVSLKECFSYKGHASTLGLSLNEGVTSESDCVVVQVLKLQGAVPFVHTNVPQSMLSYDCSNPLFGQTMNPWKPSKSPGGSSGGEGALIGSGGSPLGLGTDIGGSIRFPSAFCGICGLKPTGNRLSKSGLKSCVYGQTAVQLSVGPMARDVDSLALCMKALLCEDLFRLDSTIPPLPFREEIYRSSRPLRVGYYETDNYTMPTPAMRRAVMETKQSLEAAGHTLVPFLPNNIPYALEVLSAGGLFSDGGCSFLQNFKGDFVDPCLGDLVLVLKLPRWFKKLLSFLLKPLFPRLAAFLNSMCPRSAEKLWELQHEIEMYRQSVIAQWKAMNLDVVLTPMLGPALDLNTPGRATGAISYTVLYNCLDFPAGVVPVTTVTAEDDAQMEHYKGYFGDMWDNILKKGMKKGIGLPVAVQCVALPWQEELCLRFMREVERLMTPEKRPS
Experimental: Finally, the correlation between increases in plasma OEA levels and brain FAAH Activity was also evaluated in an escalating oral dose study in mice. Inhibition of FAAH activity was maximal at 50 mg/kg p.o. and partial 10 mg/kg p.o. (FIG. 12). Increases in plasma OEA levels directly correlated with brain FAAH inhibition (FIG. 13).

NC(=O)c1cccc(-c2cccc(OC(=O)NC3CCCCC3)c2)c1 [KDS-4103]
FAAH inhibition inferred from OEA and PEA increases [1]: complete across all doses
Increases in OEA and PEA levels across the dose range [1]: similar
plasma levels of OEA at 30 mg/kg compared with 10 mg/kg (OEA plasma levels): did not increase plasma levels of OEA above those observed at 10 mg/kg
inhibition of FAAH activity in primates, concluded from plasma OEA (plasma OEA levels; 50-1500 mg/kg): highly effective
time of peak plasma OEA levels (plasma OEA levels; each dose of 50-1500 mg/kg): four
plasma OEA levels after the peak (plasma OEA levels; each dose of 50-1500 mg/kg, up to 24 hours): remained elevated at all subsequent time points examined
Inhibition of FAAH activity in brain (FAAH; 10 mg/kg p.o.): partial
Inhibition of FAAH activity in brain (FAAH; 50 mg/kg p.o.): maximal
